Paper PMC12546632, “The role of cytochrome bc1 inhibitors in future tuberculosis treatment regimens” (Nature Communications, 2025)
≈ marks a conversion by molar mass, not a printed value. Where “and” joins values, the source holds several entries; their conditions need not be identical. Equal entries are not always repeated. Where two headings read alike, the source gives them in different places.

Assays:
[1] = system: M. tuberculosis reference strain H37Rv; assay: Survival under monotherapy in intravenous model (related to Study C); assay type: in vivo, Mycobacterium tuberculosis
M. tuberculosis H37Rv [2] = assay: MIC90 determination, H37Rv; assay type: cell-based, Mycobacterium tuberculosis
[3] = system: M. tuberculosis clinical isolates; assay: microbe, parasite or virus in culture; assay type: cell-based, Mycobacterium tuberculosis
[4] = system: M. tuberculosis ΔcydAB (Parent); assay: microbe, parasite or virus in culture; assay type: cell-based
clinical isolate, N1283 = system: clinical isolate, N1283; parameters: species or system Mycobacterium tuberculosis; conditions: in vivo
H37Rv_CydBd-KO = assay: microbe, parasite or virus in culture; assay type: cell-based, Mycobacterium tuberculosis
M. tuberculosis H37Rv [5] = assay: MBC99.9 determination, H37Rv; assay type: cell-based, Mycobacterium tuberculosis
H37Rv_CytBd-KO = assay: microbe, parasite or virus in culture; assay type: cell-based, Mycobacterium tuberculosis; conditions: read-out: MBC99.9 (H37Rv_CytBd-KO)
WT H37Rv = assay type: cell-based, Mycobacterium tuberculosis; conditions: biological replicates
N1283 clinical isolate = assay type: cell-based, Mycobacterium tuberculosis; conditions: biological replicates
[6] = assay type: in vitro ADME
Protocol: (§1) Details of the metabolic stability in liver microsomes and hepatocytes together with CYP inhibition in human liver microsomes and plasma protein binding have been published previously. The CYP induction assay was conducted by Puracyp Inc (www.puracyp.com). Studies were designed to evaluate the effect of compounds on the activation of human PXR (hPXR). The DPX2TM cells harbour the human PXR gene (NR1I2) and a luciferase reporter gene linked to two promoters identified in the human CYP3A4 gene, namely XREM and PXRE. These cells were seeded in a 96-well plate. Twenty-four hours after seeding, the cells were treated with various concentrations of compounds then incubated for an additional 24 h. Following this, the number of viable cells per well were determined using Promega’s CellTiter Fluor Cytotoxicity Assay. Briefly, One-Glo was added to the same wells and reporter gene activity was assessed. The luminescence light intensity was directly proportional to the extent of PXR activation and accompanying gene transcription in the DPX2TM cells.

human PXR (hPXR) = human PXR (hPXR) (Homo sapiens, UniProt O75469); assay type: in vitro ADME
human PXR (hPXR), sequence (O75469 whole entry): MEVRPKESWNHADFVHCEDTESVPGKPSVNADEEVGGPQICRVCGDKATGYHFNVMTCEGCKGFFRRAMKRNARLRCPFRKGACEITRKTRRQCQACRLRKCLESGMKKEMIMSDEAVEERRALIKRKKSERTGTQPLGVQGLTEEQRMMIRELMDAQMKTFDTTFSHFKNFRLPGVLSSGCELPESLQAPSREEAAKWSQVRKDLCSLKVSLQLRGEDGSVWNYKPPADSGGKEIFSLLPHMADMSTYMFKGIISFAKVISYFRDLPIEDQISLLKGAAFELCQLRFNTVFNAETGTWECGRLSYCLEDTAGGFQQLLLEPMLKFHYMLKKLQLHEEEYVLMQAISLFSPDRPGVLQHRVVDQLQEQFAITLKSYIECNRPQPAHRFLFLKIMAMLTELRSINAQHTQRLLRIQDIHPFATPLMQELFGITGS
Protocol: as §1

[7] = assay type: in vitro ADME; conditions: hepatocytes
3A4 = target: T1, 3A4 (Homo sapiens, UniProt P08684); assay type: in vitro ADME
T1 construct: from tissue; host or cells: human liver microsomes
T1 sequence (P08684 whole entry): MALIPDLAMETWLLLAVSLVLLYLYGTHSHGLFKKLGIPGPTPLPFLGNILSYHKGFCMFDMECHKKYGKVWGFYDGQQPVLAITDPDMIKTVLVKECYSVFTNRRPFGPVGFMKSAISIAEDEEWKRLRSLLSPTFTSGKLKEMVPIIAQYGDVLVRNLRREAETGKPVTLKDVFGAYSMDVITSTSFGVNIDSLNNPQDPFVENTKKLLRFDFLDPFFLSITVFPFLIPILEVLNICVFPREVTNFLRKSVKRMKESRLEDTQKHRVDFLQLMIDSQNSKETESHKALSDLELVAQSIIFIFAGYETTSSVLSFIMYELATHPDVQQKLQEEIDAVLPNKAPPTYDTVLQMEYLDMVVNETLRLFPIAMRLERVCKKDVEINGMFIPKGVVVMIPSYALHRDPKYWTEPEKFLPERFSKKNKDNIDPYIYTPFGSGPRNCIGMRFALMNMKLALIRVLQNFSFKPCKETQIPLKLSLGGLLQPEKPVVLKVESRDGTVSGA

2C19 = target: T2, 2C19 (Homo sapiens, UniProt P33261); assay type: in vitro ADME
T2 construct: from tissue; host or cells: human liver microsomes
T2 sequence (P33261 whole entry): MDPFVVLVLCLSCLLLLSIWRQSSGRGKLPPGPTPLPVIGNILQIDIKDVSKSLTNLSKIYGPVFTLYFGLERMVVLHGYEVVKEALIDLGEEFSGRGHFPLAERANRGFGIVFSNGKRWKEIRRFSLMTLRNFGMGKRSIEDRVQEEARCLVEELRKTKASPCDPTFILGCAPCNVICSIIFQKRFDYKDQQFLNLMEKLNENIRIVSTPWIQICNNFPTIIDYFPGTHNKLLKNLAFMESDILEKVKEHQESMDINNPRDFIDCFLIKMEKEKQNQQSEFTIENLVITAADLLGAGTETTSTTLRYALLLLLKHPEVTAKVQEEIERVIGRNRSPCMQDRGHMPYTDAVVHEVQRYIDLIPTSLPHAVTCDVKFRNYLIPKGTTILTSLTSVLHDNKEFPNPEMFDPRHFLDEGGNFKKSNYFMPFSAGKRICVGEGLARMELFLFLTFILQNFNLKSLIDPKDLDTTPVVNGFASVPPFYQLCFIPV

2C8 = target: T3, 2C8 (Homo sapiens, UniProt P10632); assay type: in vitro ADME
T3 construct: from tissue; host or cells: human liver microsomes
T3 sequence (P10632 whole entry): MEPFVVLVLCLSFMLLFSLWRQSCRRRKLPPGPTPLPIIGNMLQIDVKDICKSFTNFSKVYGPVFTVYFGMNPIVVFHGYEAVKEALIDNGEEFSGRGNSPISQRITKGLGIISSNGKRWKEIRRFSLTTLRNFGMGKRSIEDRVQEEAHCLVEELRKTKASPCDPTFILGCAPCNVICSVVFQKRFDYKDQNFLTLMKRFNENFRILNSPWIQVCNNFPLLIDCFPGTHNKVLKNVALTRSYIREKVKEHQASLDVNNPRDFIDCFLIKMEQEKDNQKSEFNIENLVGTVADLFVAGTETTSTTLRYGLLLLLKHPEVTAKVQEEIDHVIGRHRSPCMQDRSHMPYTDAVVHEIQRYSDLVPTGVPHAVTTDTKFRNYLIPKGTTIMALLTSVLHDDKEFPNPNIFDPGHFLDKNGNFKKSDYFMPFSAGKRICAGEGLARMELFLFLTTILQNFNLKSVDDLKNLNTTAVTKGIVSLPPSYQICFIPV

2C9 = target: T4, 2C9 (Homo sapiens, UniProt P11712); assay type: in vitro ADME
T4 construct: from tissue; host or cells: human liver microsomes
T4 sequence (P11712 whole entry): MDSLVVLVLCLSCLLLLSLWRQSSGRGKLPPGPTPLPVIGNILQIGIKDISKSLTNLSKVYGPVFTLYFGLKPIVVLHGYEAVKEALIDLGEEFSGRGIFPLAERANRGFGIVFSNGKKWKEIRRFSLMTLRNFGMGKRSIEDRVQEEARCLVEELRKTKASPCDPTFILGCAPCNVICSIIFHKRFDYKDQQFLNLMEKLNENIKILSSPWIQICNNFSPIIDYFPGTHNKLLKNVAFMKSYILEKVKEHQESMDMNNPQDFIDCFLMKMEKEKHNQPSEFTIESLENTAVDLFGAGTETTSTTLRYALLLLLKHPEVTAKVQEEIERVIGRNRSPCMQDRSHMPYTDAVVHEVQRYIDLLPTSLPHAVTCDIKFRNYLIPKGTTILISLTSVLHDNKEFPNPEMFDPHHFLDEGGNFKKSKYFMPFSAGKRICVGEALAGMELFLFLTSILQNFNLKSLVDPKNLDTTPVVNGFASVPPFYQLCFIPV

2D6 = target: T5, 2D6 (Homo sapiens, UniProt P10635); assay type: in vitro ADME
T5 construct: from tissue; host or cells: human liver microsomes
T5 sequence (P10635 whole entry): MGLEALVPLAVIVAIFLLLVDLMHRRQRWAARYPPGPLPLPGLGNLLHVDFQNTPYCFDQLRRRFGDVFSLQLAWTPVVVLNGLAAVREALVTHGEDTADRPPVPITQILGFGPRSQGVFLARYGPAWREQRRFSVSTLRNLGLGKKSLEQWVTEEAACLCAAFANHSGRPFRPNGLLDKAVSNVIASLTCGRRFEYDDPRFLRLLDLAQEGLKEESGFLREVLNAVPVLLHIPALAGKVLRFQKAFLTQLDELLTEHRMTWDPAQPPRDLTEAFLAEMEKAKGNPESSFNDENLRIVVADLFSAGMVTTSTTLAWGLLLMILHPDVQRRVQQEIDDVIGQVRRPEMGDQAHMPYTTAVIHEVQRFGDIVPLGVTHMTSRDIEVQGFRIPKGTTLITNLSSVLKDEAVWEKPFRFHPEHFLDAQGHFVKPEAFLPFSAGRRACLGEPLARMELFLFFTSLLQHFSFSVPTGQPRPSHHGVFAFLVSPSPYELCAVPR

1A2 = target: T6, 1A2 (Homo sapiens, UniProt P05177); assay type: in vitro ADME
T6 construct: from tissue; host or cells: human liver microsomes
T6 sequence (P05177 whole entry): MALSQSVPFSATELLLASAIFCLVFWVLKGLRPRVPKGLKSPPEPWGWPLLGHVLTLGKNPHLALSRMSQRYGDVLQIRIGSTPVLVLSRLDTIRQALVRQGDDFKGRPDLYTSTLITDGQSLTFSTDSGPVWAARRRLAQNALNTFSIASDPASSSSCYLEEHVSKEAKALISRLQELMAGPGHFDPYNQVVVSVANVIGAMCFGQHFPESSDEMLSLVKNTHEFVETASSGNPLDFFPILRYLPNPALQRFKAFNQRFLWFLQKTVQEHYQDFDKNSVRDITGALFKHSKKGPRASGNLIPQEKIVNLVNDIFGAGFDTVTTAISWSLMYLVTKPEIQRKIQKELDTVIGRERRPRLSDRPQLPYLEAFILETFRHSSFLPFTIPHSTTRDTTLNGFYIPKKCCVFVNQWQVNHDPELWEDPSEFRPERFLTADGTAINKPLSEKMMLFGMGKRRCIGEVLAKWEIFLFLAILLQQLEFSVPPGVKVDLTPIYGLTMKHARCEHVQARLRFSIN

[8] = system: Salmonella typhimurium strains TA98 and TAMix
[9] = mouse, in vivo, iv, 1 mg/kg

Structure (SMILES): COc1nc2ccc(Br)cc2cc1[C@@H](c1ccccc1)[C@@](O)(CCN(C)C)c1cccc2ccccc12 [Bedaquiline, bedaquiline, reference compound]
- Survival of mice under monotherapy ([1]; in vivo, iv): 100%
- Day of death, individual mice ([1]; intravenous model, monotherapy, read with the 1/0 flag of the same line (96 with flag 0)): 96
- MIC90 (M. tuberculosis H37Rv [2]; Mycobacterium tuberculosis, strain H37Rv (Institut Pasteur, lineage 4), read-out: MIC90): 0.197 µM (≈ 109 ng/mL)
- MIC90 ([3]; Mycobacterium tuberculosis, strain Mtb-0617 (Karonga, lineage 3)): 0.431 µM (≈ 239 ng/mL)
- MIC90 ([3]; Mycobacterium tuberculosis, strain Mtb-2703 (Karonga, lineage 3)): 0.064 µM (≈ 35.6 ng/mL)
- MIC90 ([3]; Mycobacterium tuberculosis, strain Mtb-4779 (Karonga, lineage 2)): 0.045 µM (≈ 25 ng/mL)
- MIC90 ([3]; Mycobacterium tuberculosis, strain Mtb-4980 (Karonga, lineage 4)): 0.063 µM (≈ 35 ng/mL)
- MIC90 ([3]; Mycobacterium tuberculosis, strain Mtb-6787 (Karonga, lineage 4)): 0.053 µM (≈ 29.4 ng/mL)
- MIC90 ([3]; Mycobacterium tuberculosis, strain Mtb-7489 (Karonga, lineage 1)): 0.43 µM (≈ 239 ng/mL)
- MIC90 ([3]; Mycobacterium tuberculosis, strain Mtb-7496 (Karonga, lineage 3)): 0.106 µM (≈ 58.9 ng/mL)
- MIC90 ([3]; Mycobacterium tuberculosis, strain Mtb-9271 (Karonga, lineage 4)): 0.05 µM (≈ 27.8 ng/mL)
- MIC90 ([3]; Mycobacterium tuberculosis, strain Mtb-61164 (Karonga, lineage 2)): 0.188 µM (≈ 104 ng/mL)
- MIC90 ([3]; Mycobacterium tuberculosis, strain N0054 (Gagneux, lineage 3)): 0.354 µM (≈ 197 ng/mL)
- MIC90 ([3]; Mycobacterium tuberculosis, strain N0072 (Gagneux, lineage 1)): 0.17 µM (≈ 94.4 ng/mL)
- MIC90 ([3]; Mycobacterium tuberculosis, strain N1283 (Gagneux, lineage 4)): 0.104 µM (≈ 57.8 ng/mL)
- MIC50 ([4]; Mycobacterium tuberculosis): 0.05 µM (≈ 27.8 ng/mL)

Structure (SMILES): NNC(=O)c1ccncc1 [Isoniazid, isoniazid]
- MIC50 ([4]; Mycobacterium tuberculosis): 0.51 µM (≈ 69.9 ng/mL)

Structure (SMILES): CCc1nc2ncc(C)cn2c1C(=O)NCc1ccc(N2CCN(S(=O)(=O)C(F)(F)F)C=N2)c(F)c1 [JNJ-4052]
- CFU reduction (clinical isolate, N1283): 1.6 log10
- MIC90 (M. tuberculosis H37Rv [2]; read-out: MIC90 (H37Rv)): 0.007 µM (≈ 3.69 ng/mL)
- MIC90 (M. tuberculosis H37Rv [2]; strain H37Rv (Institut Pasteur, lineage 4), read-out: MIC90): 0.006 µM (≈ 3.17 ng/mL)
- MIC90 (H37Rv_CydBd-KO): 0.007 µM (≈ 3.69 ng/mL)
- MIC90 ([3]; strain Mtb-0617 (Karonga, lineage 3)): 0.0013 µM (≈ 0.686 ng/mL)
- MIC90 ([3]; strain Mtb-2703 (Karonga, lineage 3)): 0.00013 µM (≈ 0.0686 ng/mL)
- MIC90 ([3]; strain Mtb-4779 (Karonga, lineage 2)): 0.00029 µM (≈ 0.153 ng/mL)
- MIC90 ([3]; strain Mtb-4980 (Karonga, lineage 4)): 0.0007 µM (≈ 0.369 ng/mL)
- MIC90 ([3]; strain Mtb-6787 (Karonga, lineage 4)): 0.00071 µM (≈ 0.375 ng/mL)
- MIC90 ([3]; strain Mtb-7489 (Karonga, lineage 1)): 0.0025 µM (≈ 1.32 ng/mL)
- MIC90 ([3]; strain Mtb-7496 (Karonga, lineage 3)): 0.00029 µM (≈ 0.153 ng/mL)
- MIC90 ([3]; strain Mtb-9271 (Karonga, lineage 4)): 0.0002 µM (≈ 0.106 ng/mL)
- MIC90 ([3]; strain Mtb-61164 (Karonga, lineage 2)): 0.00079 µM (≈ 0.417 ng/mL)
- MIC90 ([3]; strain N0054 (Gagneux, lineage 3)): 0.00085 µM (≈ 0.448 ng/mL)
- MIC90 ([3]; strain N0072 (Gagneux, lineage 1)): 0.0012 µM (≈ 0.633 ng/mL)
- MIC90 ([3]; strain N1283 (Gagneux, lineage 4)): 0.00073 µM (≈ 0.385 ng/mL)
- MBC (M. tuberculosis H37Rv [5]): > 1.25 µM
- MBC (H37Rv_CytBd-KO): 0.3 µM (≈ 158 ng/mL)
- CFU counts (WT H37Rv; Conc 8 nM): 50000000 CFU and 20000000 CFU and 53000000 CFU and 30000000 CFU
- CFU counts (WT H37Rv; Conc 32 nM): 17000000 CFU and 12000000 CFU
- CFU counts (WT H37Rv; Conc 128 nM): 26000000 CFU and 17000000 CFU
- CFU counts (N1283 clinical isolate; Conc 8 nM): 2200000 CFU and 6000000 CFU and 800000 CFU and 200000 CFU
- CFU counts (N1283 clinical isolate; Conc 32 nM): 150000 CFU and 400000 CFU and 80000 CFU and 50000 CFU
- CFU counts (N1283 clinical isolate; Conc 128 nM): 170000 CFU and 300000 CFU and 90000 CFU and 80000 CFU
- MIC50 ([4]; Parent (ΔcydAB)): 0.01 µM (≈ 5.28 ng/mL)
- Plasma protein binding, Rat (% free) [6]: 2.67 % free
- Dog Hep Clint ([6]; hepatocytes): 4.7 µL min-1 106 cells-1
- Human Hep Clint ([6]; hepatocytes): 6.7 µL min-1 106 cells-1
- Rat Hep Clint ([6]; hepatocytes): 19 µL min-1 106 cells-1
- Dog LM Clint ([6]; microsomes): < 7.7 µL min-1 mg protein-1
- Human LM Clint ([6]; microsomes): 20.4 µL min-1 mg protein-1
- Mouse LM Clint ([6]; microsomes): 42 µL min-1 mg protein-1
- Rat LM Clint ([6]; microsomes): 16.7 µL min-1 mg protein-1
- Cyp3A4 ind. (%ctrl) (human PXR (hPXR); 1 µM): 3.0 %ctrl
- Cyp3A4 ind. (%ctrl) (human PXR (hPXR); 10 µM): 21.2 %ctrl
- Mouse Hep Clint [7]: 12 µL min-1 106 cells-1
- IC50 (3A4): > 20 µM
- IC50 (2C19): > 20 µM
- IC50 (2C8): > 20 µM
- IC50 (2C9): > 20 µM
- IC50 (2D6): > 20 µM
- IC50 (1A2): > 20 µM
- IC20 (HepG2 cells): 98.8 µM
- Mutagenicity (AMES II) [8]: negative
- CLp as % LBF [9]: ~ 11 % LBF
